The text below walks through data of PubChem BioAssay (NCI).

Some test systems named below: M14 melanoma; HT29 colon; OVCAR-4 ovarian; HL-60(TB) leukemia; UO-31 renal; IGROV1 ovarian; RXF 393 renal; SW-620 colon; CAKI-1 renal; SF-268 CNS.
What all share (assay): NCI tumour cell line growth inhibition, 48 h

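Each compound was tested at five concentrations against cells in 96-well plates for 48 hours. GI50 = concentration required for 50% inhibition of growth. TGI: total growth inhibition.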

`C[C@]12CC[C@H]3[C@@H](CCC4=CC(=O)CC[C@@H]43)[C@@H]1CC[C@@H]2OC(=O)CCc1ccccc1`: the GI50 with M14 melanoma was 21.2 µM; in the test on HT29 colon it was 18.2 µM; with OVCAR-4 ovarian it was 18.8 µM; with HL-60(TB) leukemia, 2410 nM; in the test on UO-31 renal it was 18.6 µM; in the test on IGROV1 ovarian it was 20.5 µM. Also, the GI50 is 19.6 µM in the test on RXF 393 renal, 20.3 µM with SW-620 colon, 12 µM in the test with CAKI-1 renal and 15.1 µM in the test with SF-268 CNS. Further, the TGI in the test on M14 melanoma was 46.4 µM; in the test with HT29 colon it was 56.5 µM; in the test with OVCAR-4 ovarian, 40.4 µM; with HL-60(TB) leukemia it was 35.5 µM; in the test on UO-31 renal, 39.2 µM; in the test on IGROV1 ovarian, 42 µM. Further, the TGI in the test with RXF 393 renal was determined as 43.5 µM; in the test with SW-620 colon, 47.2 µM; with CAKI-1 renal, 26.2 µM; with SF-268 CNS, 29.6 µM.

Regarding `N=C(N)c1ccc(N2CCCN(c3ccc(C(=N)N)cc3)CC2)cc1`, the GI50 in the test on M14 melanoma was greater than 100 µM; in the test on HT29 colon it was 74.5 µM; in the test on OVCAR-4 ovarian it was greater than 100 µM; in the test on HL-60(TB) leukemia, greater than 100000 nM; in the test with UO-31 renal, greater than 100 µM; in the test with IGROV1 ovarian it was greater than 100 µM. In addition, the GI50 with RXF 393 renal was 98.2 µM; in the test on SW-620 colon, greater than 100 µM; in the test with CAKI-1 renal, 99.7 µM; in the test on SF-268 CNS it was 57.7 µM. Also, the TGI in the test on M14 melanoma, in the test on HT29 colon, with OVCAR-4 ovarian, in the test on HL-60(TB) leukemia, with UO-31 renal and in the test on IGROV1 ovarian was greater than 100 µM in each case. Besides, the TGI with RXF 393 renal, with SW-620 colon, with CAKI-1 renal and with SF-268 CNS was greater than 100 µM in each case.

Regarding `C=CC(=O)Nc1cccc(C)c1Nc1cc(-c2cccnc2Cc2c(C)c(OC)cc(OC)c2C)ncn1`, the GI50 was 22.5 µM with M14 melanoma; 20.3 µM in the test with HT29 colon; 20.6 µM in the test on OVCAR-4 ovarian; 5220 nM in the test on HL-60(TB) leukemia; 18.4 µM in the test on UO-31 renal; 14.2 µM in the test with IGROV1 ovarian. The GI50 is 2.52 µM with RXF 393 renal, 10.7 µM in the test with SW-620 colon, 9.97 µM in the test with CAKI-1 renal and 9.59 µM in the test on SF-268 CNS. For the same compound, the TGI was 97.5 µM in the test on M14 melanoma; greater than 100 µM in the test with HT29 colon; greater than 100 µM in the test with OVCAR-4 ovarian; 48.9 µM in the test on HL-60(TB) leukemia; greater than 100 µM in the test with UO-31 renal; 53.9 µM in the test with IGROV1 ovarian. The TGI with RXF 393 renal is 7.89 µM; in the test with SW-620 colon, 41.7 µM; with CAKI-1 renal it was greater than 100 µM; with SF-268 CNS, 60.3 µM.

In the case of `O=c1[nH]c2ccccc2nc1-c1c[nH]c2ccccc12`, the GI50 with M14 melanoma is greater than 100 µM; in the test on HT29 colon, greater than 100 µM; with OVCAR-4 ovarian, greater than 100 µM; with HL-60(TB) leukemia it was greater than 100000 nM; in the test on UO-31 renal, 0.725 µM; with IGROV1 ovarian it was 1.26 µM. The GI50 in the test with RXF 393 renal was 7.41 µM; in the test on SW-620 colon it was greater than 100 µM; in the test with CAKI-1 renal, 2.49 µM; in the test on SF-268 CNS, greater than 100 µM. Further, the TGI in the test on M14 melanoma, in the test with HT29 colon, with OVCAR-4 ovarian, in the test with HL-60(TB) leukemia, in the test on UO-31 renal and in the test on IGROV1 ovarian was greater than 100 µM in each case. Moreover, the TGI with RXF 393 renal, in the test on SW-620 colon, with CAKI-1 renal and with SF-268 CNS was greater than 100 µM throughout.

In the case of `CC(CN1CCN(CCOCCO)CC1)CN1c2ccccc2Sc2ccc(Cl)cc21` (stereo not given), the GI50 was 1.85 µM in the test with M14 melanoma; 1.79 µM in the test on HT29 colon; 4.22 µM in the test on OVCAR-4 ovarian; 1760 nM in the test on HL-60(TB) leukemia; 3.3 µM in the test with UO-31 renal; 3.36 µM in the test on IGROV1 ovarian. Further, the GI50 is 1.58 µM in the test on RXF 393 renal, 1.84 µM with SW-620 colon, 4.37 µM in the test on CAKI-1 renal and 4.87 µM in the test with SF-268 CNS. In addition, the TGI with M14 melanoma came out at 3.46 µM; in the test on HT29 colon, 3.36 µM; in the test with OVCAR-4 ovarian it was 16 µM; with HL-60(TB) leukemia it was 4.01 µM; with UO-31 renal, 16.4 µM; with IGROV1 ovarian, 13.3 µM. The TGI is 4.85 µM in the test with RXF 393 renal, 3.58 µM in the test on SW-620 colon, 17.1 µM in the test on CAKI-1 renal and 18.4 µM in the test on SF-268 CNS.

In the case of `COC(=O)Cn1c2c(c3c(O)cccc31)C(=O)c1ccccc1-2`, the GI50 in the test on M14 melanoma was greater than 100 µM; in the test with HT29 colon it was greater than 100 µM; with OVCAR-4 ovarian it was greater than 100 µM; in the test with HL-60(TB) leukemia, greater than 100000 nM; in the test on UO-31 renal, greater than 100 µM; with IGROV1 ovarian, greater than 100 µM. For the same compound, the GI50 with RXF 393 renal, in the test on SW-620 colon, in the test on CAKI-1 renal and in the test on SF-268 CNS was greater than 100 µM throughout. For the same compound, the TGI with M14 melanoma, in the test with HT29 colon, with OVCAR-4 ovarian, with HL-60(TB) leukemia, in the test with UO-31 renal and with IGROV1 ovarian was greater than 100 µM throughout. Further, the TGI with RXF 393 renal, in the test with SW-620 colon, in the test on CAKI-1 renal and in the test with SF-268 CNS was greater than 100 µM in each case.

For the compound `Cc1cc2c3ccc(C)[n+](C)c3ccc2n1C`, the GI50 was 17.2 µM with M14 melanoma; 3.07 µM with HT29 colon; 4.18 µM in the test with OVCAR-4 ovarian; 1920 nM in the test with HL-60(TB) leukemia; 3.79 µM in the test with UO-31 renal; 3.14 µM in the test with IGROV1 ovarian. The GI50 in the test on RXF 393 renal was 4.01 µM; in the test on SW-620 colon, 2.15 µM; with CAKI-1 renal, 30.5 µM; with SF-268 CNS, 2.99 µM. For the same compound, the TGI is greater than 100 µM in the test on M14 melanoma; 23.8 µM in the test on HT29 colon; 30.1 µM with OVCAR-4 ovarian; 18.7 µM in the test on HL-60(TB) leukemia; greater than 100 µM in the test with UO-31 renal; 65.3 µM in the test with IGROV1 ovarian. The TGI is 44.2 µM in the test with RXF 393 renal, greater than 100 µM with SW-620 colon, greater than 100 µM in the test on CAKI-1 renal and 15.9 µM in the test on SF-268 CNS.
